Data on 2 molecules can be found in patent publication US12090195B2 (priority 2018, dated 2024).

One data set has as its system mice. The note with it: mouse, in vivo, ip; cited from earlier work.
The subject of data set [1] is six microorganisms (bacteria, yeast, fungus). The data set is classed as cell-based.

Consider `COC(=O)c1ccc(O)cc1` [methyl paraben], for which, in the data set on mice, the LD50 is 1000 mg/kg.
Regarding `OCCOc1ccccc1` [Combination 2-PE, 2-Phenoxyethanol], in data set [1], the “antimicrobial activity against yeast and fungi” value is reported as “weaker antimicrobial activity than Thiomersal”.
